Test systems include A549 NSCLC; K-562 leukemia; OVCAR-4 ovarian; OVCAR-5 ovarian; SK-MEL-5 melanoma; SNB-19 CNS; SNB-75 CNS; U251 CNS; HCT-15 colon; NCI-H226 lung.
Test in all cases: NCI tumour cell line growth inhibition, 48 h

The structures appear in SMILES notation. Values joined by “and” are separate entries in the source; they are usually repeats but may differ in a detail not shown here. Equal entries are not always repeated.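 Where inhibition never reached the appropriate level, the endpoint shown equals the highest concentration tested. Otherwise, values were interpolated linearly from a five-concentration, 48-hour dose response in 96-well plates. GI50: concentration for 50% inhibition of growth. TGI: total growth inhibition.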

`NCC1(N2CCOCC2)C2CCCC21CNc1ccccc1` (stereo unspecified): the TGI with A549 NSCLC, with K-562 leukemia, with OVCAR-4 ovarian, with OVCAR-5 ovarian, in the assay with SK-MEL-5 melanoma and in the assay with SNB-19 CNS was over 100 µM throughout. Moreover, the TGI with SNB-75 CNS and with U251 CNS was over 100 µM in each case.
In the case of `COC(=O)C1(C)CCCC2(C)c3cc(OC)ccc3C(=O)C(Br)C12` (stereo unspecified), the TGI in the assay with A549 NSCLC, in the assay on HCT-15 colon, in the assay on K-562 leukemia, with NCI-H226 lung, in the assay with OVCAR-5 ovarian and in the assay with SK-MEL-5 melanoma was over 10 µM each time. Also, the TGI in the assay on SNB-19 CNS and in the assay on U251 CNS was over 10 µM each time.
Take `C#Cc1ccc(-n2c(/C=C/c3ccc4ccccc4c3)nc3ncccc3c2=O)cc1`: the GI50 was 2.73 µM in the assay on A549 NSCLC; 2.91 µM in the assay on HCT-15 colon; 2.43 µM in the assay on K-562 leukemia; 1.95 µM in the assay with OVCAR-4 ovarian; 6.88 µM with OVCAR-5 ovarian; 1.16 µM in the assay on SK-MEL-5 melanoma. The GI50 with SNB-75 CNS was 2950 nM; in the assay on U251 CNS, 3.69 µM. In addition, the TGI is over 100 µM in the assay on A549 NSCLC; over 100 µM with HCT-15 colon; over 100 µM with K-562 leukemia; over 100 µM in the assay on OVCAR-4 ovarian; over 100 µM in the assay on OVCAR-5 ovarian; 2.52 µM with SK-MEL-5 melanoma. The TGI in the assay on SNB-75 CNS and in the assay with U251 CNS was over 100 µM each time.
With `Cc1[nH]n(-c2cccc(Cl)c2)c(=O)c1/C=C1\C=c2ccccc2=CC1=O`, the GI50 in the assay on A549 NSCLC was over 100 µM; in the assay on HCT-15 colon it was over 100 µM; in the assay on K-562 leukemia, 44.7 µM; with OVCAR-4 ovarian, over 100 µM; with OVCAR-5 ovarian, over 100 µM; in the assay on SK-MEL-5 melanoma it was over 100 µM. In addition, the GI50 in the assay on SNB-19 CNS was 45.7 µM; in the assay with SNB-75 CNS it was 927 nM; with U251 CNS it was 40.7 µM. Also, the TGI in the assay with A549 NSCLC, in the assay on HCT-15 colon, in the assay on K-562 leukemia, in the assay on OVCAR-4 ovarian, with OVCAR-5 ovarian and in the assay on SK-MEL-5 melanoma was over 100 µM each time. Moreover, the TGI in the assay on SNB-19 CNS is over 100 µM; with SNB-75 CNS, 32.7 µM; in the assay on U251 CNS it was over 100 µM.
As for `FC(F)(F)c1ccc(NCc2nc3ccccc3[nH]2)cc1`, the GI50 in the assay on A549 NSCLC was 27.7 µM; in the assay with HCT-15 colon, 32.7 µM; in the assay on NCI-H226 lung it was 26.1 µM; in the assay with OVCAR-4 ovarian it was 27.1 µM; with OVCAR-5 ovarian, 27.8 µM; with SK-MEL-5 melanoma, 15.6 µM. In addition, the GI50 was 34.3 µM in the assay with SNB-19 CNS, 23000 nM with SNB-75 CNS and 27.5 µM with U251 CNS. Moreover, the TGI in the assay with A549 NSCLC is over 100 µM; in the assay on HCT-15 colon it was over 100 µM; with NCI-H226 lung it was over 100 µM; with OVCAR-4 ovarian, over 100 µM; in the assay with OVCAR-5 ovarian it was 78.3 µM; with SK-MEL-5 melanoma, 30 µM. Further, the TGI in the assay on SNB-19 CNS, in the assay on SNB-75 CNS and in the assay on U251 CNS was over 100 µM each time.
Turning to `COC(=O)C1=C(\O)C[C@@]2(C)CC[C@@H](C(=O)OC)C2C/C=C\1C(=O)OC` (stereo partly specified), the TGI in the assay on A549 NSCLC, in the assay with HCT-15 colon, in the assay on NCI-H226 lung, in the assay on OVCAR-4 ovarian, with OVCAR-5 ovarian and in the assay on SK-MEL-5 melanoma was over 100 µM in each case. For the same molecule, the TGI in the assay with SNB-19 CNS, in the assay with SNB-75 CNS and in the assay with U251 CNS was over 100 µM in each case.
As to `COc1ccc(/C=C2/CN(CCC#N)C/C(=C\c3ccc(OC)cc3)C2=O)cc1`, the GI50 is 2.92 µM in the assay with A549 NSCLC; 2.51 µM in the assay on HCT-15 colon; 3.28 µM in the assay on K-562 leukemia; 21.3 µM in the assay on NCI-H226 lung; 4.42 µM in the assay with OVCAR-4 ovarian; 3.33 µM in the assay with OVCAR-5 ovarian. Besides, the GI50 in the assay on SK-MEL-5 melanoma was 1.39 µM; in the assay on SNB-19 CNS it was 4.07 µM; in the assay on U251 CNS it was 2.1 µM. Also, the TGI was over 100 µM in the assay with A549 NSCLC; 21.8 µM with HCT-15 colon; over 100 µM in the assay on K-562 leukemia; over 100 µM in the assay with NCI-H226 lung; over 100 µM with OVCAR-4 ovarian; 24.9 µM in the assay on OVCAR-5 ovarian. The TGI with SK-MEL-5 melanoma was 2.74 µM; in the assay with SNB-19 CNS, over 100 µM; with U251 CNS, 5.1 µM.
In the case of `COc1cc(Cn2c(SCC(=O)Nc3ccc(Cl)cc3)nc3ccccc3c2=O)cc(OC)c1OC`, the GI50 with A549 NSCLC is 4.66 µM; in the assay with HCT-15 colon, 17 µM; in the assay on NCI-H226 lung, 4 µM; with OVCAR-4 ovarian, 3.01 µM; in the assay with OVCAR-5 ovarian, 14.8 µM; in the assay with SK-MEL-5 melanoma, 6.38 µM. The GI50 with SNB-19 CNS is 6.8 µM; in the assay on SNB-75 CNS, 1580 nM; in the assay on U251 CNS, 3.14 µM. The TGI in the assay on A549 NSCLC is 21.1 µM; in the assay on HCT-15 colon it was over 100 µM; in the assay with NCI-H226 lung it was 26.2 µM; in the assay on OVCAR-4 ovarian it was 13.9 µM; in the assay with OVCAR-5 ovarian it was over 100 µM; with SK-MEL-5 melanoma, 21.2 µM. For the same molecule, the TGI in the assay with SNB-19 CNS is 26 µM; with SNB-75 CNS, 4.89 µM; in the assay on U251 CNS it was 11.1 µM.
Consider `Cc1cc(N)cc(C)c1-c1c(Br)cc(N)cc1Br`, for which the GI50 in the assay with A549 NSCLC is 4.71 µM; with HCT-15 colon, 4.77 µM; with NCI-H226 lung, 9.43 µM; in the assay with OVCAR-4 ovarian, 5.93 µM; with OVCAR-5 ovarian, 4.84 µM; with SK-MEL-5 melanoma, 4.52 µM. Besides, the GI50 in the assay on SNB-19 CNS is 5.3 µM; with SNB-75 CNS, 2290 nM; with U251 CNS, 4.54 µM. The TGI with A549 NSCLC is 56.5 µM; with HCT-15 colon it was over 100 µM; with NCI-H226 lung, over 100 µM; in the assay on OVCAR-4 ovarian, over 100 µM; in the assay on OVCAR-5 ovarian, over 100 µM; in the assay with SK-MEL-5 melanoma, 16.1 µM. Moreover, the TGI is over 100 µM in the assay with SNB-19 CNS, 16.2 µM with SNB-75 CNS and 17.9 µM with U251 CNS.
For the molecule `CCN(CCO)CCCOc1ccc2c(Nc3cc(CC(=O)Nc4cccc(F)c4)[nH]n3)ncnc2c1`, the GI50 in the assay on A549 NSCLC is 20.5 µM; in the assay on HCT-15 colon, over 100 µM; in the assay with K-562 leukemia it was 8.89 µM; in the assay with NCI-H226 lung, 23.8 µM; in the assay with OVCAR-4 ovarian, 19.4 µM; in the assay with OVCAR-5 ovarian, 42.3 µM. Besides, the GI50 was 19.8 µM in the assay with SK-MEL-5 melanoma, 15.4 µM in the assay on SNB-19 CNS and 13.7 µM in the assay on U251 CNS. Further, the TGI is over 100 µM with A549 NSCLC; over 100 µM in the assay on HCT-15 colon; over 78.4 µM with K-562 leukemia; over 100 µM with NCI-H226 lung; over 100 µM in the assay on OVCAR-4 ovarian; over 100 µM in the assay on OVCAR-5 ovarian. In addition, the TGI is 48.5 µM and > 3.51 µM in the assay with SK-MEL-5 melanoma; over 60.6 µM with SNB-19 CNS; 29.4 µM and > 10 µM with U251 CNS.
Take `O=C1N=C(Nc2nc(-c3csc(NC4=NC(=O)/C(=C\c5ccc(Cl)cc5)S4)n3)cs2)S/C1=C/c1ccc(Cl)cc1`: the GI50 was 10.5 µM with A549 NSCLC; 40.4 µM in the assay with HCT-15 colon; 7.23 µM in the assay with K-562 leukemia; 3.79 µM in the assay with NCI-H226 lung; 25.8 µM with OVCAR-5 ovarian; 3.83 µM in the assay with SK-MEL-5 melanoma. Also, the figures for the GI50 in the assay with SNB-19 CNS and with U251 CNS were 12 µM and 4.83 µM, respectively. The TGI is over 50 µM in the assay with A549 NSCLC; over 50 µM in the assay with HCT-15 colon; over 50 µM in the assay with K-562 leukemia; 22.3 µM with NCI-H226 lung; over 50 µM in the assay on OVCAR-5 ovarian; 41 µM in the assay on SK-MEL-5 melanoma. Further, the TGI with SNB-19 CNS and in the assay on U251 CNS was over 50 µM each time.
With `ClCCCCOC1CCCCO1` (stereo unspecified), the TGI in the assay on A549 NSCLC, in the assay on HCT-15 colon, in the assay on NCI-H226 lung, with OVCAR-4 ovarian, in the assay on OVCAR-5 ovarian and in the assay with SK-MEL-5 melanoma was over 100 µM throughout. The TGI in the assay with SNB-19 CNS, in the assay on SNB-75 CNS and in the assay on U251 CNS was over 100 µM throughout.
In the case of `Cc1ccc(NC(=O)C(=O)CC(=O)c2ccccc2)cc1C`, the TGI with A549 NSCLC, in the assay with HCT-15 colon, with NCI-H226 lung, in the assay on OVCAR-4 ovarian, in the assay with OVCAR-5 ovarian and in the assay with SK-MEL-5 melanoma was over 100 µM each time. In addition, the TGI in the assay with SNB-19 CNS, in the assay on SNB-75 CNS and in the assay with U251 CNS was over 100 µM in each case.
Turning to `O=C(/C=C/c1ccccc1)OCC1=C[C@@H](O)[C@@H]2C=CO[C@@H](OC3OC(CO)C(O)C(O)C3O)[C@H]12` (stereo partly specified), the TGI in the assay with A549 NSCLC, with HCT-15 colon, with NCI-H226 lung, with OVCAR-4 ovarian, in the assay with OVCAR-5 ovarian and in the assay with SK-MEL-5 melanoma was over 100 µM each time. In addition, the TGI in the assay with SNB-19 CNS, with SNB-75 CNS and with U251 CNS was over 100 µM in each case.
Take `O=C(O)c1cn(C2CC2)c2cc(N3CCN(Cc4ccc5ccccc5c4O)CC3)c(F)cc2c1=O`: the GI50 in the assay with A549 NSCLC was 3.29 µM; in the assay with HCT-15 colon, 3.22 µM; in the assay with NCI-H226 lung, 3.14 µM; in the assay with SK-MEL-5 melanoma it was 3.78 µM; with SNB-19 CNS, 29.8 µM; in the assay with SNB-75 CNS, 1870 nM. Moreover, the GI50 with U251 CNS was 4.87 µM. Further, the TGI is over 100 µM with A549 NSCLC; over 100 µM with HCT-15 colon; over 100 µM in the assay on NCI-H226 lung; over 100 µM in the assay with SK-MEL-5 melanoma; over 100 µM in the assay on SNB-19 CNS; 6.73 µM in the assay with SNB-75 CNS. Also, in the assay on U251 CNS, the TGI is over 100 µM.

These data come from PubChem BioAssay (NCI).
